System: Clostridium difficile infection
Test: Primary CDI treatment outcome in patients with a first CDI episode (clinical cohort)
Format: in vivo, human
Details: 88 patients with first CDI episode; metronidazole versus vancomycin (Table 1)
Source text: Patients with a first Clostridium difficile infection (CDI) episode were recruited. Consecutive patient stool samples that led to CDI diagnosis were collected.
Clinical data including demographics, hospitalization, concomitant medications, severity, laboratory parameters, prior and concomitant antibiotic use, initial CDI treatment, treatment response and recurrent CDI were obtained by a review of the electronic medical record.
Treatment failure was defined as non-response to treatment after 5 days of metronidazole treatment or 4 days of vancomycin therapy (Khanna et al., 2012 Am J Gastroenterol 107:89-95; Cohen et al., 2010 Infect Control Hosp Epidemiol 31:431-55; and Surawicz et al., 2013 Am J Gastroenterol 108:478-98). Recurrent CDI was defined as recurrence of diarrhea after complete resolution of symptoms at any time during the treatment or within 56 days of onset with a positive CDI test (Cohen et al., 2010 Infect Control Hosp Epidemiol 31:431-55).
Stool samples were collected from 88 patients (median age 52.7 years, interquartile range 36.9-65.1; 60.2% female) and clinical outcomes were recorded prospectively. The rate of primary non-response following recommended treatment was 12.5%, and was similar between metronidazole and vancomycin (Table 1).

| SMILES | rate of primary non-response, comparison between drugs |
| --- | --- |
| CN[C@H](CC(C)C)C(=O)N[C@H]1C(=O)N[C@@H](CC(N)=O)C(=O)N[C@H]2C(=O)N[C@H]3C(=O)N[C@H](C(=O)N[C@H](C(=O)O)c4cc(O)cc(O)c4-c4cc3ccc4O)[C@H](O)c3ccc(c(Cl)c3)Oc3cc2cc(c3O[C@@H]2O[C@H](CO)[C@@H](O)[C@H](O)[C@H]2O[C@H]2C[C@](C)(N)[C@H](O)[C@H](C)O2)Oc2ccc(cc2Cl)[C@H]1O [vancomycin] | similar |
| Cc1ncc([N+](=O)[O-])n1CCO [metronidazole] | similar |
